Results on 2 compounds are retold here after publication PMC3163001 (Organic letters, 2011).

This experiment concerns the target SylD-CA (Pseudomonas syringae, UniProt Q83Y48). The experiment in a line: ATP-PPi radioactivity exchange assay. The format is biochemical. The note with it: reversible adenylation.

SMILES strings stand for the structures.

Regarding `NCC/C=C/[C@H](N)C(=O)O` [L-3,4-dehydrolysine], where the note is “preferred substrate of the A domain”, the “ATP-PPi radioactivity exchange assay” value was “As expected L-3,4-dhl was preferentially reversibly adenylated”. For `NCCCC[C@H](N)C(=O)O` [L-lysine], the “ATP-PPi radioactivity exchange assay” value is on record as “L-lysine was reversibly adenylated at a much slower rate”.
